In paper PMC10793102 (Acta Pharmaceutica Sinica. B, 2023):
Read-outs that look alike come from different tables or passages of the source.

Assays:
FADD−/− Jurkat = experiment: Cell viability assay, protection from necroptosis in FADD−/− Jurkat cells; assay type: cell-based; details: Homo sapiens, 16 h
L929 = experiment: Cell viability assay, protection from necroptosis in L929 cells; assay type: cell-based, mouse; details: for EC50: Mus musculus, L929, 16 h
[1] = read-out: EC50 FADD−/− Jurkat T + S
[2] = read-out: EC50 FADD−/− Jurkat TNFα

SMILES | EC50 (FADD−/− Jurkat; [1]) | EC50 (FADD−/− Jurkat; [2]) | EC50 (L929; read-out: EC50 L929 T + S) | EC50 (L929; read-out: EC50 L929 TNFα) | protective effects against cell death of L929 cells induced by TNFα (L929; TNFα 40 ng/mL, 15 h, Fig. 2A)
CNC(=O)c1ccc2c(c1)ncn2-c1ccc(CC(=O)N(O)Cc2ccccc2)cc1 [compound 14] | > 10000 nM | 3800 nM | 98 nM | 50 nM | 
CCn1nc(C(=O)NCc2ccc(-n3cnc4cc(C(=O)NC)ccc43)cc2)cc1Cc1ccccc1 [compound 22] | 43 nM | 5.9 nM |  |  | 
Cn1ncc(C(=O)NC(C)(C)c2ccc(-n3cnc4c(N)ncnc43)cc2)c1Cc1ccccc1 [compound 56] | 28 nM | 7.5 nM |  | 550 nM | 
Nc1ncnc2c1ncn2-c1ccc(CN2CCc3cn(Cc4ccccc4)nc3C2=O)cc1 [compound 61] | 0.4 nM | 0.3 nM |  |  | 
Cn1ncc(C(=O)NCc2ccc(-n3cnc4c(N)nccc43)cc2)c1Cc1ccccc1 [compound 40] | 2.3 nM | 0.3 nM | 6.3 nM | 1.2 nM | 
CNC(=O)c1ccc2c(c1)ncn2-c1ccc(CNC(=O)c2nocc2Cc2ccccc2)cc1 [compound 19] | 113 nM | 8.1 nM | 3350 nM | 2140 nM | 
N#Cc1ccc(C(=O)NCc2ccc(-n3cnc4c(N)ncnc43)cc2)n1Cc1ccccc1 [compound 53] | 1860 nM | 214 nM |  |  | 
COc1ccc2ncn(-c3ccc(CNC(=O)c4cnn(C)c4Cc4ccccc4)cc3)c2c1 [compound 35] | 0.6 nM | 0.01 nM | 0.4 nM | 0.03 nM | 
Nc1ncnc2c1ncn2-c1ccc(CNC(=O)c2ccc(Cl)n2Cc2ccccc2)cc1 [compound 52] | 80.6 nM | 6.6 nM |  |  | 
Cn1ncc(C(=O)NCc2ccc(-n3ccc4c(N)ncnc43)cc2)c1Cc1ccccc1 [compound 42] | 8 nM | 4.2 nM | 0.9 nM | 0.1 nM | 
Cn1nc(C(=O)NCc2ccc(-n3ccc4c(N)ncnc43)cc2)cc1Cc1ccccc1 [compound 45] | 980 nM | 137 nM |  | 2890 nM | 
CCN1CCN(Cc2ccc(NC(=O)c3ccc(-n4cnc5cc(C(=O)NC)ccc54)cc3)cc2C(F)(F)F)CC1 [compound 13] |  |  |  |  | relatively weaker
CNC(=O)c1ccc2c(c1)ncn2-c1ccc(CNC(=O)c2noc(Cc3ccccc3)n2)cc1 [compound 16] | 176 nM | 24 nM |  | 962 nM | 
Cn1nc2c(c1Cc1ccccc1)C(=O)N(Cc1ccc(-n3cnc4c(N)ncnc43)cc1)C2 [compound 60] | 2.9 nM | 0.05 nM | 116 nM | 4.8 nM | 
CNC(=O)c1ccc2c(c1)ncn2-c1ccc(CNC(=O)c2nnc(Cc3ccccc3)o2)cc1 [compound 17] | 1520 nM | 185 nM |  |  | 
Cn1ncc(C(=O)NCc2ccc(-n3ncc4c(N)ncnc43)cc2)c1Cc1ccccc1 [compound 41] | 6.9 nM | 0.4 nM | 23 nM | 9.9 nM | 
Cn1nc(C(=O)NCc2ccc(-n3ccc4c(N)nccc43)cc2)cc1Cc1ccccc1 [compound 46] | > 10000 nM | 361 nM |  |  | 
CN(C)CCNC(=O)c1ccc2c(c1)ncn2-c1ccc(CNC(=O)c2cnn(C)c2Cc2ccccc2)cc1 [compound 30] | 368 nM | 53 nM | > 10000 nM | > 10000 nM | 
CNC(=O)c1ccc2c(c1)ncn2-c1ccc(CNC(=O)c2n[nH]c(Cc3ccccc3)n2)cc1 [compound 15] |  | > 10000 nM |  |  | 
Cn1nc(C(=O)NCc2ccc(-n3ncc4c(N)ncnc43)cc2)cc1Cc1ccccc1 [compound 44] | 451 nM | 71 nM |  |  | 

SMILES | EC50 (FADD−/− Jurkat; [1]) | EC50 (FADD−/− Jurkat; [2]) | EC50 (L929; read-out: EC50 L929 T + S) | EC50 (L929; read-out: EC50 L929 TNFα) | protective effects against cell death of L929 cells induced by TNFα (L929; TNFα 40 ng/mL, 15 h, Fig. 2A)
Cn1ncc(C(=O)NCc2ccc(-n3cnc4cc(C(=O)NCCN5CCOCC5)ccc43)cc2)c1Cc1ccccc1 [compound 32] | 3 nM | 0.5 nM | 190 nM | 32 nM | 
Nc1ncnc2c1ncn2-c1ccc(CNC(=O)c2ccc(F)n2Cc2ccccc2)cc1 [compound 51] | 1.6 nM | 0.1 nM | 74 nM | 0.9 nM | 
COc1cc2ncn(-c3ccc(CNC(=O)c4cnn(C)c4Cc4ccccc4)cc3)c2cc1OC [compound 33] | 0.1 nM | 0.02 nM | 0.4 nM | 0.06 nM | 
CCn1ncc(C(=O)NCc2ccc(-n3cnc4c(N)ncnc43)cc2)c1Cc1ccccc1 [compound 47] | 35 nM | 1.2 nM | 74 nM | 22 nM | 
CNC(=O)c1ccc2c(c1)ncn2-c1ccc(CNC(=O)c2nnn(Cc3ccccc3)n2)cc1 [compound 25] | 150 nM | 24 nM |  |  | 
CNC(=O)c1ccc2c(ccn2-c2ccc(CNC(=O)c3cc(Cc4ccccc4)n(C)n3)cc2)c1 [compound 28] | > 10000 nM | > 10000 nM | > 10000 nM | > 10000 nM | 
CNC(=O)c1ccc2ncn(-c3ccc(CNC(=O)c4cc(Cc5ccccc5)nn4C)cc3)c2c1 [compound 21] | > 10000 nM | > 10000 nM | > 10000 nM | > 10000 nM | 
Cn1nc2c(c1Cc1ccccc1)C(=O)N(Cc1ccc(-n3cnc4c(N)ncnc43)cc1)CC2 [compound 59] | 2.3 nM | 0.2 nM | 39 nM | 8.4 nM | 
COc1ccc2c(c1)ncn2-c1ccc(CNC(=O)c2cnn(C)c2Cc2ccccc2)cc1 [compound 34] | 0.1 nM | 0.002 nM | 0.08 nM | 0.005 nM | 
CN1CCN(CCNC(=O)c2ccc3c(c2)ncn3-c2ccc(CNC(=O)c3cnn(C)c3Cc3ccccc3)cc2)CC1 [compound 31] | 0.6 nM | 0.01 nM | > 10000 nM | 5630 nM | 
Cn1nc(C(=O)NCc2ccc(-n3cnc4c(N)ncnc43)cc2)cc1Cc1ccccc1 [compound 43] | 0.3 nM | 0.06 nM | 384 nM | 25 nM | 
C[C@@H](NC(=O)c1cnn(C)c1Cc1ccccc1)c1ccc(-n2cnc3c(N)ncnc32)cc1 [compound 55] | 132 nM | 36 nM | 219 nM | 52 nM | 
CNC(=O)c1ccc2c(c1)ncn2-c1ccc(CNC(=O)c2ncc(Cc3ccccc3)o2)cc1 [compound 18] | 380 nM | 70 nM | 3980 nM | 831 nM | 
COc1ccc2c(cnn2-c2ccc(CNC(=O)c3cnn(C)c3Cc3ccccc3)cc2)c1 [compound 36] | 128 nM | 18 nM |  |  | 
Cn1ncc(C(=O)NCc2ccc(-c3ncnc4[nH]ccc34)cc2)c1Cc1ccccc1 [compound 38] | 747 nM | 152 nM | > 10000 nM | > 10000 nM | 
CNC(=O)c1ccc2c(c1)ncn2-c1ccc(CNC(=O)c2cn(Cc3ccccc3)nn2)cc1 [compound 24] | 1590 nM | 233 nM |  |  | 
CNC(=O)c1ccc2c(cnn2-c2ccc(CNC(=O)c3cc(Cc4ccccc4)n(C)n3)cc2)c1 [compound 29] | > 10000 nM | > 10000 nM | > 10000 nM | > 10000 nM | 
COc1cc2ncnc(-c3ccc(CNC(=O)c4cnn(C)c4Cc4ccccc4)cc3)c2cc1OC [compound 37] | 1500 nM | 233 nM |  |  | 
CCCn1nc(C(=O)NCc2ccc(-n3cnc4cc(C(=O)NC)ccc43)cc2)cc1Cc1ccccc1 [compound 23] | 738 nM | 109 nM |  |  | 
